# Experimental data as given in patent publication US20130158098A1, “Alkenyl Substituted Cycloaliphatic Compounds as Chemical Inducers of Proximity” (priority 2010, published 2013).
# Experiments:
# [1] = ABA stability in human serum (luciferase biofunctional readout); assay type: in vitro ADME
# Procedure: FIG. 3C provides the results of a stability test of ABA in cell culture conditions. CHO cells were pre-transfected with the activation and reporter DNA constructs for 24 hours. 100 μM ABA was then added to the culture and cells were assayed for luciferase activity after 10 hours. During the 10-hour incubation, the cell culture media were replaced with media containing freshly added ABA every 1, 2.5, 5 hour or no replacement. FIG. 4A illustrates the results of an experiment in which human serum pre-incubated ABA was used to induce luciferase transcription. ABA was incubated with pure non-heat inactivated human serum at 37° C. for indicated time period. ABA containing serum was then added to the CHO cell culture to a final 100 μM ABA concentration for 25 hours and cells were assayed for luciferase activity. The cells were pre-transfected with the activation and reporter DNA constructs for 24 hours. FIG. 4B illustrates the results of an experiment in which fetal bovine serum pre-incubated ABA was used to induce luciferase transcription. ABA was incubated with pure heat inactivated fetal bovine serum at 37° C. for indicated time period. ABA containing serum was then added to the CHO cell culture to a final 100 μM ABA concentration for 10 hours and cells were assayed for luciferase activity. The cells were pre-transfected with the activation and reporter DNA constructs for 24 hours.
# In plants, ABA had been reported to be unstable due to active enzymatic degradation (Cutler, A. J. and Krochko, J. E. (1999) Formation and breakdown of ABA. Trends Plant Sci. 4, 472-478). […] The activity of residual ABA in the serum was measured by its ability to induce the transcriptional activation of the luciferase reporter in cells expressing the ABA-activator cassette. […] Using this assay, the bioavailability in mice was evaluated. […]
# [2] = test system: ERK1/2 phosphorylation (SOS-PYLcs and myr-ABIcs); test: SOS activation: ABA-induced ERK phosphorylation by SOS localization; assay type: cell-based, human; conditions: cells expressing SOS-PYLcs and myr-ABIcs; 250 μM ABA
# Procedure: Six-well plates of 293T cells containing 0.5×10^6 cells per well were transfected with 3 μg of total DNA using FuGENE HD (Roche). Cells were transfected with expression plasmids encoding myr-ABI, SOS-PYL, SOS-FKBP, myr-SOS, and an expression vector control, pUC19. ABA (250 μM) was added at 3, 6, 12, and 24 hours before harvesting the cells. Cells were lysed in 1× lysis buffer [50 mM Tris-HCl (pH 7.5), 300 mM NaCl, 1% NP-40, 0.1% SDS, 0.5% sodium deoxycholate, 20 mM NaF, 1 mM Na3VO4, 1 mM phenylmethylsulfonyl fluoride (PMSF), and 1× protease inhibitor mixture (Calbiochem)] for 20 min at 4° C. After centrifugation at 14,000 g for 15 min, proteins were separated on 4 to 12% bis-tris NuPAGE gels (Invitrogen) and transferred to polyvinylidene difluoride membranes. […] Infrared dye 800 and 680 anti-rabbit or anti-mouse secondary antibodies were incubated at room temperature for 1 hour in 10% BSA-PBST and detected with a LI-COR/Odyssey scanner. […]
structure (smiles),measurement,setting,value
"CC1=CC(=O)CC(C)(C)C1(O)/C=C/C(C)=C/C(=O)O (stereo not shown) [ABA, abscisic acid]",reduction in ability to induce transcription of luciferase,"[1]; pure human serum, 37° C., up to 48 hours",no significant reduction
same,time ABA is stable in human serum,"[1]; pure non-heat inactivated human serum, 37° C.",at least 46 hours
same,stability in serum,"[1]; serum, over 48 hours",stable
same,phosphorylation of ERK,[2],induced the phosphorylation of ERK
